From patent publication US20190343828A1, “CAMPTOTHECIN PEPTIDE CONJUGATES” (SEATTLE GENETICS, INC., priority 2018, published 2019)

Key:
[1] = tested on: acute promyelocytic leukemia cells (HL-60); assay: In vitro cytotoxicity, CellTiter-Glo 96 h, HL-60; settings: Homo sapiens, HL-60, read-out: Cytotoxic potency (IC50 class), HL-60
[2] = tested on: renal carcinoma cells (786-O); assay: In vitro cytotoxicity, CellTiter-Glo 96 h, 786-O; settings: Homo sapiens, 786-0, read-out: Cytotoxic potency (IC50 class), 786-O
[3] = tested on: Hodgkin's lymphoma cells (L540cy); assay: In vitro cytotoxicity, CellTiter-Glo 96 h, L540cy; settings: read-out: Cytotoxic potency (IC50 class), L540cy
Procedure: (§1) In vitro potency was assessed on multiple cancer cell lines. All cell lines were authenticated by STR profiling at IDEXX Bioresearch and cultured for no more than 2 months after resuscitation. Cells cultured in log-phase growth were seeded for 24 hours in 96-well plates containing 150 μl RPMI 1640 supplemented with 20% FBS. Serial dilutions of antibody-drug conjugates in cell culture media were prepared at 4× working concentrations, and 50 μl of each dilution was added to the 96-well plates. Following addition of test articles, cells were incubated with test articles for 4 days at 37° C. After 96 hours, growth inhibition was assessed by CellTiter-Glo® (Promega, Madison, Wis.) and luminescence was measured on a plate reader.
(§2) Cell viability was determined by CellTiter-Glo staining after 96 h exposure to ADC.

[4] = tested on: acute myeloid leukemia cells (MOLM13); assay: In vitro cytotoxicity, CellTiter-Glo 96 h, MOLM13; settings: Homo sapiens, MOLM-13, read-out: Cytotoxic potency as free drug, IC50, MOLM13
Procedure: as §1, §2

[5] = tested on: pancreatic cancer cells (BxPC3); assay: In vitro cytotoxicity, CellTiter-Glo 96 h, BxPC3; settings: Homo sapiens, BXPC-3, read-out: Cytotoxic potency (IC50 class), BxPC3
Procedure: as §1, §2

[6] = tested on: multiple drug resistant acute promyelocytic leukemia cells (HL-60/RV); assay: In vitro cytotoxicity, CellTiter-Glo 96 h, HL60/RV; settings: Homo sapiens, HL-60, read-out: Cytotoxic potency (IC50 class), HL60/RV
Procedure: as §1, §2

[7] = tested on: B-lymphocyte cancer cells (SU-DHL-4); assay: In vitro cytotoxicity, CellTiter-Glo 96 h, SU-DHL-4; settings: Homo sapiens, SU-DHL-4, read-out: Cytotoxic potency as free drug, IC50, SU-DHL-4
[8] = tested on: multiple myeloma cells (MM.1R); assay: In vitro cytotoxicity, CellTiter-Glo 96 h, MM.1R; settings: read-out: Cytotoxic potency (IC50 class), MM.1R
Procedure: as §1
(§3) Cell viability was determined by CellTiter-Glo staining after 96 h exposure to ADC. […] Ag1 is an antibody targeting a ubiquitous and readily internalizable antigen on cancer cells, Ag2 is cAC10 antibody targeting CD30(+) cancer cells, Ag3 is h1F6 antibody targeting CD70(+) cancer cells, Ag4 is hMEM102 antibody targeting CD48(+) cancer cells, Ag5 is h20F3 antibody targeting NTB-A expressing cancer cells, and h00 is a non-binding control antibody.

[9] = tested on: melanoma cells (SK-MEL-5); assay: In vitro cytotoxicity, CellTiter-Glo 96 h, SK-MEL-5; settings: Homo sapiens, SK-MEL-5, read-out: Cytotoxic potency as free drug, IC50, SK-MEL-5
[10] = tested on: Burkitt's lymphoma cells (Ramos); assay: In vitro cytotoxicity, CellTiter-Glo 96 h, Ramos; settings: Homo sapiens, read-out: Cytotoxic potency as free drug, IC50, Ramos
Procedure: as §1, §2

[11] = tested on: B-lymphocyte cancer cells (U266); assay: In vitro cytotoxicity, CellTiter-Glo 96 h, U266; settings: Homo sapiens, U-266, read-out: Cytotoxic potency as free drug, IC50, U266
Procedure: as §1, §3

CC[C@@]1(O)C(=O)OCc2c1cc1n(c2=O)Cc2c-1nc1cc3c(cc1c2CN)OCO3 [Compound 4, 7-methylamino Derivative-methylenedioxy camptothecin]
IC50 [1]: 10 to 100 nM | IC50 [2]: 1 to 10 nM | IC50 [3]: 1 to 10 nM | IC50 [4]: 1 to 10 nM | IC50 [5]: 1 to 10 nM | IC50 [6]: 10 to 100 nM | IC50 [7]: 0.1 to 1 nM | IC50 [8]: 1 to 10 nM | IC50 [9]: 1 to 10 nM | IC50 [10]: 1 to 10 nM | IC50 [11]: 1 to 10 nM

CC[C@@]1(O)C(=O)OCc2c1cc1n(c2=O)Cc2c-1nc1cc3c(cc1c2CNC(=O)CO)OCO3 [Compound 4a]
IC50 [1]: 10 to 100 nM | IC50 [2]: 10 to 100 nM | IC50 [3]: 10 to 100 nM | IC50 [4]: 1 to 10 nM | IC50 [5]: 10 to 100 nM | IC50 [6]: 10 to 100 nM | IC50 [7]: 10 to 100 nM | IC50 [8]: 1 to 10 nM | IC50 [9]: 1 to 10 nM | IC50 [10]: 10 to 100 nM | IC50 [11]: 1 to 10 nM

CC[C@@]1(O)C(=O)OCc2c1cc1n(c2=O)Cc2c-1nc1cc3c(cc1c2CNC(=O)CN)OCO3 [Compound 4b]
IC50 [1]: 100 to 1000 nM | IC50 [2]: 100 to 1000 nM | IC50 [3]: 10 to 100 nM | IC50 [4]: 10 to 100 nM | IC50 [5]: 100 to 1000 nM | IC50 [7]: 10 to 100 nM | IC50 [8]: 10 to 100 nM | IC50 [9]: 100 to 1000 nM | IC50 [10]: 10 to 100 nM | IC50 [11]: 10 to 100 nM

CC[C@@]1(O)C(=O)OCc2c1cc1n(c2=O)Cc2c-1nc1cc3c(cc1c2CN(C)C(=O)CN)OCO3 [Compound 4c]
IC50 [1]: 100 to 1000 nM | IC50 [2]: 10 to 100 nM | IC50 [3]: 10 to 100 nM | IC50 [4]: 1 to 10 nM | IC50 [5]: 100 to 1000 nM | IC50 [6]: 100 to 1000 nM | IC50 [7]: 10 to 100 nM | IC50 [8]: 10 to 100 nM | IC50 [9]: 100 to 1000 nM | IC50 [10]: 1 to 10 nM | IC50 [11]: 10 to 100 nM

CC[C@@]1(O)C(=O)OCc2c1cc1n(c2=O)Cc2c-1nc1cc3c(cc1c2CNC(=O)CCN)OCO3 [Compound 4d]
IC50 [1]: 100 to 1000 nM | IC50 [2]: 100 to 1000 nM | IC50 [3]: 100 to 1000 nM | IC50 [4]: 10 to 100 nM | IC50 [5]: 100 to 1000 nM | IC50 [7]: 10 to 100 nM | IC50 [8]: 1 to 10 nM | IC50 [9]: 10 to 100 nM | IC50 [10]: 10 to 100 nM | IC50 [11]: 10 to 100 nM

CC[C@@]1(O)C(=O)OCc2c1cc1n(c2=O)Cc2c-1nc1cc3c(cc1c2CNC(=O)[C@@H](N)CCC(=O)O)OCO3 [Compound 4e]
IC50 [3]: 100 to 1000 nM | IC50 [4]: 100 to 1000 nM | IC50 [5]: 100 to 1000 nM | IC50 [10]: 100 to 1000 nM

CC[C@@]1(O)C(=O)OCc2c1cc1n(c2=O)Cc2c-1nc1cc3c(cc1c2CNC)OCO3 [Compound 5]
IC50 [1]: 10 to 100 nM | IC50 [2]: 1 to 10 nM | IC50 [3]: 1 to 10 nM | IC50 [4]: 1 to 10 nM | IC50 [5]: 10 to 100 nM | IC50 [6]: 10 to 100 nM | IC50 [7]: 1 to 10 nM | IC50 [8]: 1 to 10 nM | IC50 [9]: 1 to 10 nM | IC50 [10]: 1 to 10 nM | IC50 [11]: 1 to 10 nM

CC[C@@]1(O)C(=O)OCc2c1cc1n(c2=O)Cc2c-1nc1cc3c(cc1c2CNCCNC(C)C)OCO3 [Compound 5m]
IC50 [1]: 100 to 1000 nM | IC50 [2]: 10 to 100 nM | IC50 [3]: 10 to 100 nM | IC50 [4]: 10 to 100 nM | IC50 [5]: 100 to 1000 nM | IC50 [7]: 10 to 100 nM | IC50 [8]: 10 to 100 nM | IC50 [9]: 100 to 1000 nM | IC50 [10]: 1 to 10 nM | IC50 [11]: 10 to 100 nM

CC[C@@]1(O)C(=O)OCc2c1cc1n(c2=O)Cc2c-1nc1cc3c(cc1c2-c1ccc(F)cc1)OCO3 [Compound 6]
IC50 [2]: 1 to 10 nM | IC50 [3]: 0.1 to 1 nM | IC50 [4]: 0.1 to 1 nM | IC50 [5]: 1 to 10 nM | IC50 [6]: 0.1 to 1 nM | IC50 [7]: 0.1 to 1 nM | IC50 [8]: 1 to 10 nM | IC50 [9]: 1 to 10 nM | IC50 [10]: 0.1 to 1 nM | IC50 [11]: 1 to 10 nM

CCC(C)c1c2c(nc3cc4c(cc13)OCO4)-c1cc3c(c(=O)n1C2)COC(=O)[C@]3(O)CC (stereo partly drawn) [Compound 6b]
IC50 [2]: 1 to 10 nM | IC50 [3]: 1 to 10 nM | IC50 [4]: 1 to 10 nM | IC50 [5]: 1 to 10 nM | IC50 [6]: 1 to 10 nM | IC50 [7]: 1 to 10 nM | IC50 [8]: 1 to 10 nM | IC50 [9]: 1 to 10 nM | IC50 [10]: 1 to 10 nM | IC50 [11]: 1 to 10 nM

CC[C@@]1(O)C(=O)OCc2c1cc1n(c2=O)Cc2c-1nc1cc3c(cc1c2C(C)C)OCO3 [Compound 6c]
IC50 [2]: 1 to 10 nM | IC50 [3]: 1 to 10 nM | IC50 [4]: 1 to 10 nM | IC50 [5]: 1 to 10 nM | IC50 [6]: 1 to 10 nM | IC50 [7]: 0.1 to 1 nM | IC50 [8]: 1 to 10 nM | IC50 [9]: 1 to 10 nM | IC50 [10]: 0.1 to 1 nM | IC50 [11]: 1 to 10 nM
